Experimental data as given in patent US7196117B2, “Use of cationic surfactant as activity enhancer in deodorants and oral care” (Laboratorios Miret, S.A., priority 2001, dated 2007).

How the values were obtained:
[1] = toxicological studies; format: in vivo; conditions: animals and humans
[2] = metabolism in rats; format: in vivo

## CCCCCCCCCCCC(=O)N[C@@H](CCCN=C(N)N)C(=O)OCC.Cl [LAE, ethyl ester of the lauramide of the arginine monohydrochloride]
[1]
  toxicity: completely harmless to animals and humans
[2]
  absorption and metabolism: fast absorption and metabolism into naturally-occurring amino acids and the fatty acid lauric acid
